Experimental data reported in patent US20200215169A1, “ANTIBACTERIAL METHODS AND RELATED KITS” (THE HENRY M. JACKSON FOUNDATION FOR THE ADVANCEMENT OF …, priority 2017, published 2020).
“Also recorded” adds a separate entry of the source.

Key:
[1] = system: E. faecalis OG1RF and Δeep biofilms; assay: Biofilm biomass quantified by safranin staining, OD450 nm, 96-well polystyrene plates; format: cell-based, Enterococcus faecalis
Method: (§1) Biofilms of the two strains were grown overnight in tryptic soy broth without added glucose in the wells of 96-well polystyrene plates at 37° C. The liquid cultures were removed from the plate, and the material remaining in the wells (i.e., the biomass) was washed five times with sterile water.
Both OG1RF and Δeep were streaked on Brain Heart Infusion (BHI) agar plates and incubated at room temperature for two days. Three colonies from each strain were inoculated in BHI broth and incubated overnight at 37° C. 96-well microtiter plate biofilm assays were performed using the overnight cultures diluted in Tryptic Soy Broth (TSB). Biofilm plates were incubated overnight at 37° C. in a moist environment. The microtiter plate was washed with sterile water. […] After incubation, the microtiter plate was washed again with sterile water and left to dry until water was absent in the wells. The plate was stained with safranin, washed again with sterile water, and then read on a plate reader to determine the amount of biofilm in the wells.

[2] = system: E. faecalis OG1RF and Δeep biofilms; assay: Viable cells (CFU) recovered from biofilm biomass after treatment; settings: for decrease in viable biofilm cells: three-hour exposure
Method: (§2) Cells were scraped up from the wells of the 96-well plate following the post-treatment washing step, as described above. The scraped up cells were serially diluted and plated to assess the number of colony forming units (CFU) recovered per ml (CFU/ml).
The bacteria were then diluted (10^0-10^−7), and plated on Brain Heart Infusion (BHI) plates. The plates were incubated overnight at 37° C.
These solutions were diluted by serial 10-fold dilutions, and then aliquots of each dilution were plated on BHI agar plates to enumerate the number of viable bacteria present in each solution. In addition, the biofilms in the plate were washed, and then two wells of OG1RF biofilms and two wells of Δeep biofilms were removed by scraping manually with a pipette tip and resuspended in potassium phosphate buffered saline. These dislodged biofilm cell solutions were also diluted by serial 10-fold dilutions, and then aliquots of each dilution were plated on BHI agar plates to enumerate the viable bacteria present in each sample. Finally, the remainder of the biofilm wells were allowed to dry for several hours, and then the biomass in each well was stained with safranin. Excess safranin was washed away, and the plates were dried again. Biofilm biomass was quantified by reading the optical density of safranin-stained wells at OD450 nm.

[3] = system: E. faecalis OG1RF biofilms; settings: cited from earlier work
E. faecalis OG1RF = settings: cited from earlier work
[4] = system: E. faecalis OG1RF and Δeep biofilms; assay: Viable cells in the treatment solution (supernatant) removed from biofilms, dispersal check; format: cell-based, Enterococcus faecalis; settings: 5 mg/ml hen egg white lysozyme, 3 h, 37° C., either strain
Method: To conduct this experiment, the number of viable cells that were present in the buffer or lysozyme solution that was removed from the biofilms following exposure was measured. If viable cells were dispersed from the biofilm following treatment, then one should be able to enumerate viable cells in the lysozyme solution removed from the treated wells.
In this experiment, biofilms of E. faecalis OG1RF and Δeep were grown in 96-well microtiter plates overnight. The biofilms were washed to remove non-adherent cells.

[5] = system: planktonic E. faecalis OG1RF and Δeep cells; assay: Viability of planktonic logarithmic and stationary phase cells exposed to lysozyme; format: cell-based, Enterococcus faecalis; settings: 2.5 mg/ml lysozyme, 6 hours
Method: Early logarithmic cultures were prepared by diluting overnight cultures 1:100 in BHI broth. To obtain stationary phase cells, BHI broth was inoculated with 3 individual colonies and cultivated for about 18 hours. […] Cultures to which sterile water was added served as controls. Cultures were incubated at 37° C. for 6 hours.

[6] = system: E. faecalis strains DS16, FA2-2, JH2-2, VA1128, V583 and 39-5 biofilms; assay: Biofilm biomass by safranin staining, laboratory strains and clinical isolates; format: cell-based, Enterococcus faecalis; settings: strains DS16, VA1128 and V583, methods of Example 1
Method: as §1, with “water. […] Following incubation, the lysozyme or buffer solutions were removed, and the wells were washed again as above.” for “water.”
E. faecalis strains DS16, FA2-2, JH2-2, and 39-5 are strains that have been used for laboratory experiments for many years, and E. faecalis strain V583 is a vancomycin-resistant strain that has become the prototype lab strain for studies of vancomycin-resistant E. faecalis. E. faecalis strain VA1128 is a clinical isolate.

[7] = system: E. faecalis strains DS16, FA2-2, JH2-2, VA1128, V583 and 39-5 biofilms; assay: Viable cells (CFU) recovered from biofilms, laboratory strains and clinical isolates; format: cell-based, Enterococcus faecalis; settings: all tested strains, methods of Example 1
Excerpt: as §2

[8] = 128 μg/ml ampicillin in water, 3 h, OG1RF and Δeep

CC1(C)S[C@@H]2[C@H](NC(=O)[C@H](N)c3ccccc3)C(=O)N2[C@H]1C(=O)O [ampicillin, reference compound]
change in biofilm biomass [1, 8]: no changes; also recorded: resistant to any effect
change in biofilm cell viability [2, 8]: no changes; also recorded: resistant to any effect
ampicillin concentration to which biofilms are resistant [3]: > 128 µg/mL
susceptibility in planktonic conditions (E. faecalis OG1RF): susceptible

Human lysozyme: purified, recombinant human lysozyme available for purchase
increase in stained biomass ([1]; recombinant human lysozyme versus buffer): approximately 3.5 fold
decrease in viable cells ([2]; OG1RF and Δeep, recombinant human lysozyme): > 99.9%
reduction of viable cells recovered from biofilms ([2]; OG1RF, recombinant human lysozyme): 3.2 log 10 CFU/ml
reduction of viable cells recovered from biofilms ([2]; Δeep, recombinant human lysozyme): 4.0 log 10 CFU/ml

lysozyme: hen egg white lysozyme (EC 3.2.1.17), enzyme that hydrolyzes beta-1,4-linkages of bacterial cell wall peptidoglycan
increase in stained biomass among 0.156, 1.25 and 5 mg/ml ([1]; 1.25 mg/ml lysozyme): largest increase
biofilm biomass (safranin staining) versus buffer ([1]; 5 mg/ml hen egg white lysozyme, 3 h, 37° C., OG1RF and Δeep): increased biofilm biomass of equal magnitude for both strains; also recorded: increased equally for both strains; also recorded: greater than the staining in untreated wells
stained biomass at 6 hours compared to 3 hours ([1]; 5 mg/ml lysozyme, 37° C.): increased slightly
viable cells recovered from biofilm at 6 and 24 hours compared to 3 hours ([2]; 5 mg/ml lysozyme, 37° C.): dropped slightly
drop in viable cells recovered from biofilm ([2]; OG1RF, 5 mg/ml lysozyme, 3 h, difference in means of 3 biological replicates): 2.8 log 10 CFU/ml
decrease in viable biofilm cells ([2]; OG1RF, 5 mg/ml lysozyme): 99.8%
viability of biofilm cells versus untreated or buffer (in words) ([2]; lysozyme-treated OG1RF and Δeep biofilms): fewer living cells than the untreated strains; also recorded: displayed killing; also recorded: decreased the number of viable biofilm cells
decrease in viable biofilm cells ([2]; Δeep, 5 mg/ml lysozyme): 99.9%
viable cells in lysozyme supernatant [4]: no viable cells above the limit of detection
decrease in viable cells ([5]; OG1RF and Δeep, stationary phase): about 1.5 log 10 CFU/ml
decrease in viable cells ([5]; OG1RF, logarithmic growth): no decrease
biofilm biomass after treatment [6]: increased, to some extent
viable cells recovered from biofilms [7]: reduced the number of viable cells
